According to US8318731B2, “Pyrrolopyrimidines” (Janssen Pharmaceutica NV, priority 2007, dated 2012):

Legend:
A2780 = experiment: Cellular proliferation assay (Alamar blue), A2780; assay type: cell-based; conditions: 10% FCS, 72 h with compound, Alamar blue 24 h; for IC50: Homo sapiens, A2780, A2780 cells, read-out: pIC50 A2780 (converted)
How it was run: (§1)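 Cells in 10% FCS (37° C., 5% CO2) were seeded 24 hours before a 72-hour compound exposure. Viable cells were measured by Alamar blue fluorescence (544 nm/590 nm) after dye incubation of 4 h (HCT-116), 6 h (U87-MG) or 24 h (PC3, A2780). Effect is relative to control cells.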

H1299 = experiment: Cellular proliferation assay (Alamar blue), H1299; assay type: cell-based; conditions: 10% FCS, 72 h with compound, Alamar blue 4 h; for IC50: Homo sapiens, NCI-H1299, H1299 cells, read-out: pIC50 H1299 (converted)
How it was run: (§2)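 Viable cell number is determined by Alamar blue conversion after cells are treated with compound for 72 hours, following 24 hours of growth without compound in 10% FCS. The effect is calculated against control cells.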

PC3 = experiment: Cellular proliferation assay (Alamar blue), PC3; assay type: cell-based; conditions: 10% FCS, 72 h with compound, Alamar blue 24 h; for IC50: Homo sapiens, PC-3, PC-3 cells, read-out: pIC50 PC-3 (converted)
How it was run: as §1

U87-MG = experiment: Cellular proliferation assay (Alamar blue), U87-MG; assay type: cell-based; conditions: Homo sapiens, U-87 MG; U87-MG cells; 10% FCS; 72 h with compound; Alamar blue 6 h; read-out: pIC50 U87MG (converted)
How it was run: as §1

MDA-MB-231 = experiment: Cellular proliferation assay (Alamar blue), MDA-MB-231; assay type: cell-based; conditions: 10% FCS, 72 h with compound, Alamar blue 24 h; for IC50: Homo sapiens, MDA-MB-231, MDA-MB-231 cells, read-out: pIC50 MDA/MB231 (converted)
How it was run: as §2

HCT-116 = experiment: Cellular proliferation assay (Alamar blue), HCT-116; assay type: cell-based; conditions: Homo sapiens; HCT-116 cells; 10% FCS; 72 h with compound; Alamar blue 4 h; read-out: pIC50 HCT-116 (converted)
How it was run: as §1

PLK4 (h) = biological target: T1, PLK4 (h) (Homo sapiens, UniProt O00444); experiment: PLK-4 human kinase scintillation proximity assay (SPA); assay type: biochemical; conditions: 1 μM ATP, 60 minutes at r.t., read-out: PLK4 pIC50 (converted)
T1 sequence (O00444 1-970): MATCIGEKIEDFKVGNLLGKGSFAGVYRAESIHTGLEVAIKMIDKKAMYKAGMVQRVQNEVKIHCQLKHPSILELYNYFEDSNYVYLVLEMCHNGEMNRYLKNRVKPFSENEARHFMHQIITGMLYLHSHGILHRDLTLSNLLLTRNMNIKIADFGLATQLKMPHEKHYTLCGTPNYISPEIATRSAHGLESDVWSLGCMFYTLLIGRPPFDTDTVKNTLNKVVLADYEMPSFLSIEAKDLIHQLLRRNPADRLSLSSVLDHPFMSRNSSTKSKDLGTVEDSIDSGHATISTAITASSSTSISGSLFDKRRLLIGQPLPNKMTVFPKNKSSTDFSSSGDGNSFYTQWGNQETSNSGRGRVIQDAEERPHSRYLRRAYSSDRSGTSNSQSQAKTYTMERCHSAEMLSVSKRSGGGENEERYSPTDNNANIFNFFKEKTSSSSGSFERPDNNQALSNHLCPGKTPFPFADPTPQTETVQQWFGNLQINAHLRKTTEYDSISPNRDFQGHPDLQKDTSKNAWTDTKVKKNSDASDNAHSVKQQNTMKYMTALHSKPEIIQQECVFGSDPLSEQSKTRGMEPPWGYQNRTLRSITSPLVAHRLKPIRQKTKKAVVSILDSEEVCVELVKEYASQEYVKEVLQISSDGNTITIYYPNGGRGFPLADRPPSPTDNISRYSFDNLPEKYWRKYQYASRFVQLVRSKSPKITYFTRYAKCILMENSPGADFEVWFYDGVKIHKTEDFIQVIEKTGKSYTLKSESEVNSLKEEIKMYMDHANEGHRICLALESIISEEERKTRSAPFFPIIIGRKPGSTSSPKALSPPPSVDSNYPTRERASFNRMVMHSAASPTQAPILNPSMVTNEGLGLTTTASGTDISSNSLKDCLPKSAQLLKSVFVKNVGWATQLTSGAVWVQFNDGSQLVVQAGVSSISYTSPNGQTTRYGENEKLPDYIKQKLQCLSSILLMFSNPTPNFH
How it was run: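 Human PLK4 (19 μg/ml) reacted with 10 μM biotinylated peptide, 1 μM ATP plus 2 nM [γ-33P]ATP in HEPES pH 8.0 with MgCl2, NaCl, NaF and DTT for 60 min at r.t. After an EDTA stop, phosphorylated substrate was captured on streptavidin PVT SPA beads and scintillation imaged.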

Compound | IC50 (A2780) | melting point | IC50 (H1299) | IC50 (PC3) | IC50 (U87-MG) | IC50 (MDA-MB-231) | IC50 (HCT-116) | IC50 (PLK4 (h)) | pIC50 A2780 (A2780; A2780 cells) | pIC50 H1299 (H1299; H1299 cells) | pIC50 PC-3 (PC3; PC-3 cells) | pIC50 MDA/MB231 (MDA-MB-231; MDA-MB-231 cells)
COc1ccc(OCCOc2ccc3cc2OCC(=O)N(C)CCCN(C)Cc2c[nH]c4ncnc(c24)N3)cc1 [Compound 155] | 31.6 nM | 250.4 °C | 126 nM | 2510 nM | 251 nM | 2510 nM | 63.1 nM | – | – | – | – | –
CN1CCCN(C)C(=O)COc2cc(ccc2OCCSc2ccc(Cl)cc2)Nc2ncnc3[nH]cc(c23)C1 [Compound 150] | 63.1 nM | 252.6 °C | ≥ 10000 nM | 5010 nM | – | 2510 nM | 63.1 nM | – | – | – | – | –
CCOCCOc1ccc2cc1OCC(=O)N(C)CCCN(C)Cc1c[nH]c3nc(C)nc(c13)N2 [Compound 147] | 2510 nM | 251 °C | > 10000 nM | > 10000 nM | > 10000 nM | > 10000 nM | > 10000 nM | – | – | – | – | –
COc1ccc2cc1OCC(=O)N(C)CCN(C)Cc1c[nH]c3ncnc(c13)N2 [Compound 10] | > 10000 nM | 249.3 °C | > 10000 nM | > 10000 nM | > 10000 nM | > 10000 nM | > 10000 nM | 126 nM | – | – | – | –
COc1ccc2cc1OCC(=O)N(C)CCCN(C)Cc1c[nH]c3ncnc(c13)N2 [Compound 7] | 631 nM | 267.9 °C | 1000 nM | 2000 nM | 1260 nM | 1580 nM | 501 nM | 39.8 nM | – | – | – | –
COc1ccc(OCCCOc2ccc3cc2OCC(=O)N(C)CCCN(C)Cc2c[nH]c4ncnc(c24)N3)cc1 [Compound 78] | 1260 nM | 222.2 °C | 2510 nM | 5010 nM | 3980 nM | 6310 nM | 1260 nM | 50.1 nM | – | – | – | –
CCOCCOc1ccc2cc1OCC(=O)N(C)CCCNCc1c[nH]c3ncnc(c13)N2 [Compound 75] | 631 nM | 237.4 °C | > 10000 nM | > 10000 nM | > 10000 nM | > 10000 nM | 794 nM | 39.8 nM | – | – | – | –
CN1CCCN(C)C(=O)COc2cc(ccc2OCC2CCN(Cc3ccccc3)CC2)Nc2ncnc3[nH]cc(c23)C1 [Compound 149] | 316 nM | 241 °C | ≥ 10000 nM | 1000 nM | 501 nM | 1000 nM | 398 nM | – | – | – | – | –
CN1CCCN(C)C(=O)COc2cc(ccc2OCCN(C)c2nccs2)Nc2ncnc3[nH]cc(c23)C1 [Compound 157] | 501 nM | 232.2 °C | 1260 nM | 3160 nM | 1000 nM | 3160 nM | 501 nM | – | 6.4 | 6.00 | 5.6 | 5.6
CN1CCCN(C)C(=O)COc2cc(ccc2OCCNc2ccc(Cl)cc2)Nc2ncnc3[nH]cc(c23)C1 [Compound 79] | 200 nM | 269.3 °C | 794 nM | 3980 nM | 3160 nM | 5010 nM | 251 nM | 100 nM | – | – | – | –
CCOCCOc1ccc2cc1OCC(=O)N(C)CCCN(C)Cc1c[nH]c3ncnc(c13)N2 [Compound 70] | 79.4 nM | 237.8 °C | 501 nM | 3980 nM | 1580 nM | 2510 nM | 100 nM | 25.1 nM | – | – | – | –
CN1CCCN(C)C(=O)COc2cc(ccc2OCCNc2nccs2)Nc2ncnc3[nH]cc(c23)C1 [Compound 156] | 501 nM | 238.4 °C | 2000 nM | 3160 nM | 1260 nM | 3160 nM | 631 nM | – | – | – | – | –
COc1ccc2cc1OCCCC(=O)N(C)CC1CN(Cc3c[nH]c4ncnc(c34)N2)C1 [Compound 73] | > 10000 nM | 265.3 °C | > 10000 nM | > 10000 nM | – | > 10000 nM | > 10000 nM | 200 nM | – | – | – | –
CCOCCOc1ccc2cc1OCC(=O)N(C)CCCN(C)Cc1cn(C)c3ncnc(c13)N2 [Compound 81] | 200 nM | 221 °C | 631 nM | > 10000 nM | 501 nM | 2000 nM | 251 nM | 79.4 nM | – | – | – | –
